Test results published in ChEMBL document CHEMBL5233261, “Recent accomplishments on the synthetic/biological facets of pharmacologically active 1H-1,2,3-triazoles” (Eur J Med Chem, 2021).
Values after ≈ are worked out from the molar mass of the structure shown. Values joined by “and” are separate entries in the source; they are usually repeats but may differ in a detail not shown here. Equal entries are not always repeated.

How the values were obtained:
MCF7 [1] = test: Anticancer activity against human MCF7 cells assessed as cell growth inhibition incubated for 24 hrs by MTT assay; type: functional, cell-based; details: MCF7, 24 h
MCF7 [2] = test: Anticancer activity against human MCF7 cells assessed as cell growth inhibition incubated for 72 hrs by MTT assay; type: functional, cell-based; details: MCF7, 72 h
HeLa = test: Anticancer activity against human HeLa cells assessed as cell growth inhibition incubated for 72 hrs by MTT assay; type: functional, cell-based
[3] = tested on: Mycobacterium tuberculosis; test: Antibacterial activity against Mycobacterium tuberculosis H37Rv ATCC 27294 strain assessed as bacterial growth inhibition by MABA Assay; type: functional
Plasmodium falciparum [4] = test: Antimalarial activity against Plasmodium falciparum 3D7 strain incubated for 40 hrs by Giemsa staining based microscopic analysis; type: functional, organism-based; details: 3D7, 40 h
Plasmodium falciparum [5] = test: Antimalarial activity against Plasmodium falciparum RKL-2 strain incubated for 40 hrs by Giemsa staining based microscopic analysis; type: functional, organism-based; details: RKL-2, 40 h
Plasmodium berghei = test: In vivo antimalarial activity against Plasmodium berghei infected in swiss albino mouse at 50 microg/kg, ip administered as single dose for 4 to 6 weeks relative to control; type: functional; details: dose 50 µg/kg, time 4-6 weeks
Enterococcus faecalis = test: Antibacterial activity against Enterococcus faecalis ATCC 29212 strain assessed as bacterial growth inhibition incubated for 24 hrs; type: functional
Plasmodium falciparum [6] = test: Antimalarial activity against Plasmodium falciparum 3D7 strain by MSF assay; type: functional, organism-based
[7] = target: Enoyl-[acyl-carrier-protein] reductase [NADH] (Mycobacterium tuberculosis) (UniProt P9WGR1); test: Inhibition of Mycobacterium tuberculosis InhA at 50 microM relative to control
Sequence of Enoyl-[acyl-carrier-protein] reductase [NADH] (Mycobacterium tuberculosis) (P9WGR1 whole entry): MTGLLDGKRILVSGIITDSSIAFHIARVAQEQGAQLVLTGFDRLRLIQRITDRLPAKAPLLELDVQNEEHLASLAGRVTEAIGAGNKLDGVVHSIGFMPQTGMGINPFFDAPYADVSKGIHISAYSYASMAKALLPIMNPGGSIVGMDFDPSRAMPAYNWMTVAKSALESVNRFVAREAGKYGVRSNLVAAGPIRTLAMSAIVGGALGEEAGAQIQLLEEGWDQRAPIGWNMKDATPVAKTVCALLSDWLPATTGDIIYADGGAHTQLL

Staphylococcus aureus [8] = test: Antibacterial activity against Staphylococcus aureus ATCC 6535 strain assessed as bacterial growth inhibition incubated for 24 hrs; type: functional
MCF7 [9] = test: Potency index, ratio of Tamoxifen IC50 to test compound IC50 for cytotoxicity against human MCF7 cells by MTT assay; type: functional
Staphylococcus aureus [10] = test: Antibacterial activity against Staphylococcus aureus ATCC 6538P strain assessed as bacterial growth inhibition; type: functional
Candida albicans = test: Antifungal activity against Candida albicans NRRL Y-477 strain assessed as […] growth inhibition; type: functional
Bacillus cereus = test: Antibacterial activity against Bacillus cereus ATCC 11778 strain assessed as bacterial growth inhibition; type: functional
Proteus vulgaris = test: Antibacterial activity against Proteus vulgaris ATCC 7829 strain assessed as bacterial growth inhibition; type: functional
Escherichia coli [11] = test: Antibacterial activity against Escherichia coli ATCC 853 strain assessed as bacterial growth inhibition; type: functional
Aspergillus fumigatus = test: Antifungal activity against Aspergillus fumigatus ATCC 13073 strain assessed as […] growth inhibition; type: functional
MDA-MB-231 [12] = test: Potency index, ratio of Tamoxifen IC50 to test compound IC50 for cytotoxicity against human MDA-MB-231 cells by MTT assay; type: functional
MCF7 [13] = test: Anticancer activity against human MCF7 cells assessed as cell growth inhibition incubated for 24 hrs by ELISA assay; type: functional, cell-based; details: MCF7, 24 h
MDA-MB-231 [14] = test: Anticancer activity against human MDA-MB-231 cells assessed as cell growth inhibition incubated for 48 hrs by MTT assay; type: functional, cell-based; details: MDA-MB-231, 48 h
[15] = tested on: Mycobacterium tuberculosis; test: Antibacterial activity against Mycobacterium tuberculosis H37Ra ATCC 25177 assessed as bacterial growth inhibition by XTT Reduction Menadione Assay; type: functional
Staphylococcus aureus [16] = test: Antibacterial activity against Staphylococcus aureus assessed as bacterial growth inhibition incubated for 24 hrs by agar well diffusion assay; type: functional
[17] = tested on: Mycobacterium tuberculosis; test: Antibacterial activity against Mycobacterium tuberculosis H37Rv strain assessed as bacterial growth inhibition incubated for 7 days by Resazurin Microtiter Assay; type: functional; details: 168 h, time 7 day
Bacillus subtilis = test: Antibacterial activity against Bacillus subtilis assessed as bacterial growth inhibition incubated for 24 hrs by agar well diffusion assay; type: functional
Escherichia coli [18] = test: Antibacterial activity against Escherichia coli assessed as bacterial growth inhibition incubated for 24 hrs by agar well diffusion assay; type: functional
Escherichia coli [19] = test: Antibacterial activity against Escherichia coli assessed as bacterial growth inhibition; type: functional; details: Escherichia coli; read-out: MIC
Pseudomonas aeruginosa = test: Antibacterial activity against Pseudomonas aeruginosa assessed as bacterial growth inhibition; type: functional; details: Pseudomonas aeruginosa; read-out: MIC
[20] = tested on: Mycobacterium tuberculosis; test: Antibacterial activity against Mycobacterium tuberculosis H37Rv MTCC 200 strain assessed as bacterial growth inhibition; type: functional

## O=C1C(=O)N(CCCn2cc(COCCOc3ccc(/C(=C(/CCCl)c4ccccc4)c4ccccc4)cc3)nn2)c2c(Br)cc(Br)cc21
MCF7 [1]
  IC50: 16.5 µM

## Cc1ccc(-n2cc(CSc3nnc(C(C)c4ccc(CC(C)C)cc4)o3)nn2)c(C)c1 (centres undefined)
MCF7 [2]
  IC50: 31 µg/mL (≈ 69.3 µM)
HeLa
  IC50: 27.5 µg/mL (≈ 61.4 µM)

## COc1ccc(C(=O)Cn2cc(CNC(=O)c3cc4cc(OC)ccc4nc3Cl)nn2)cc1
[3]
  MIC: 1.6 µg/mL (≈ 3.43 µM)

## COc1ccc2nc(Cl)c(C(=O)NCc3cn(Cc4ccccc4)nn3)cc2c1
[3]
  MIC: 1.6 µg/mL (≈ 3.92 µM)

## C[C@H]1[C@H](N=[N+]=[N-])O[C@@H]2O[C@]3(C)CC[C@H]4[C@H](C)CC[C@@H]1[C@@]24OO3
Plasmodium falciparum [4]
  IC50: 0.066 µg/mL (≈ 0.213 µM)
Plasmodium falciparum [5]
  IC50: 0.865 µg/mL (≈ 2.8 µM)
Plasmodium berghei
  Activity: 59%

## CCOP(=O)(CCn1cc(Cn2cnc3ccccc3c2=O)nn1)OCC
Enterococcus faecalis
  MIC: 0.625 µg/mL (≈ 1.6 µM)

## [N-]=[N+]=NCC(=O)NCCNc1ccnc2cc(Cl)ccc12
Plasmodium falciparum [6]
  IC50: 0.0387 µM

## COc1cc(-n2cc(CS(=O)(=O)C3c4ccccc4-c4ccccc43)nn2)cc(OC)c1OC
[7]
  inhibition: 73%

## CCOP(=O)(CCCn1cc(Cn2cnc3ccccc3c2=O)nn1)OCC
Staphylococcus aureus [8]
  MIC: 0.625 µg/mL (≈ 1.54 µM)

## O=C1C(=O)N(CCn2cc(COCCOc3ccc(/C(=C(/CCCl)c4ccccc4)c4ccccc4)cc3)nn2)c2c(Br)cc(Br)cc21
MCF7 [9]
  Ratio IC50: 30

## COc1ccccc1-n1cc(COc2ccc(-c3nc(-c4ccccc4)c(-c4ccccc4)n3Cc3cn(-c4ccccc4OC)nn3)cc2)nn1
Staphylococcus aureus [10]
  MIC: 13.8 µM (≈ 9.46 µg/mL)
Candida albicans
  MIC: 13.8 µM (≈ 9.46 µg/mL)
Bacillus cereus
  MIC: 13.8 µM (≈ 9.46 µg/mL)
Proteus vulgaris
  MIC: 13.8 µM (≈ 9.46 µg/mL)
Escherichia coli [11]
  MIC: 13.8 µM (≈ 9.46 µg/mL)
Aspergillus fumigatus
  MIC: 13.8 µM (≈ 9.46 µg/mL)

## COc1ccc2nc(Cl)c(C(=O)NCc3cn(CC(=O)c4ccc(F)cc4)nn3)cc2c1
[3]
  MIC: 1.6 µg/mL (≈ 3.53 µM)

## Cc1ncc([N+](=O)[O-])n1Cc1cn(CCCCCN2C(=O)C(=O)c3cc(Cl)ccc32)nn1
MCF7 [9]
  Ratio IC50: 2
MDA-MB-231 [12]
  Ratio IC50: 5

## COc1cc2ncnc(Nc3ccc(Cn4cc(-c5ccccc5)nn4)cc3)c2cc1OC
MCF7 [13]
  IC50: 20.7 µM

## CCC(C)n1cc(CN2C(=O)C3(C(C#N)=C(N)Oc4cc5c(cc43)[nH]c3ccccc35)c3ccccc32)nn1 (centres undefined)
MDA-MB-231 [14]
  IC50: 2.13 µM

## CC(=O)Nc1ccc(N2C=C(C(c3c[nH]c4ccc(Br)cc34)c3c[nH]c4ccc(Br)cc34)NN2)cc1
[15]
  MIC: 3 µg/mL and 1 µg/mL

## Cc1cc(=O)oc2cc(OCc3cn(CCCCCCCCn4cc(COc5cc6oc(=O)cc(C)c6cc5Cl)nn4)nn3)c(Cl)cc12
Staphylococcus aureus [16]
  inhibition zone (IZ): 16 mm
[17]
  MIC: 1.56 µg/mL (≈ 2.25 µM)
Bacillus subtilis
  inhibition zone (IZ): 19 mm
Escherichia coli [18]
  inhibition zone (IZ): 14 mm

## COc1ccc2nc(Cl)c(C(=O)NCc3cn(C(=O)c4ccc(F)cc4)nn3)cc2c1
Escherichia coli [19]
  MIC: 6.25 µg/mL (≈ 14.2 µM)
Pseudomonas aeruginosa
  MIC: 6.25 µg/mL (≈ 14.2 µM)

## O=C1C(=O)N(CCCCn2cc(COCCOc3ccc(/C(=C(/CCCl)c4ccccc4)c4ccccc4)cc3)nn2)c2c(Br)cc(Br)cc21
MCF7 [1]
  IC50: 11 µM

## O=C(Cn1cc(-c2ccccc2)nn1)Nc1ccccc1
[20]
  MIC: 0.0898 umol/cm3

## CCOC(=O)[C@H]1Cc2c([nH]c3ccccc23)CN1Cc1cn(CCCN2C(=O)C(=O)c3ccccc32)nn1
MCF7 [1]
  IC50: 37.4 µM
